Entries after “also recorded” stand apart in the source; their conditions may differ.
How the values were obtained:
[1] = ESI-MS analysis of complex formation with copper salts; type: binding
Procedure: Eight equivalents of M(NO3)2·xH2O or MSO4·xH2O (M=Cu, Zn) were reacted with 1 eq. of DPM-1001 (1 mM in H2O). The reaction solutions were stirred at RT, 40° C. and 80° C. for 2 h. Mass spectra were recorded on a Bruker Esquire 6000 HCT quadrupole ion trap instrument (Bruker Daltonik GmbH, Leipzig, Germany), equipped with an electrospray ionization (ESI) source. Generation of the molecular formula of the DPM-1001/Cu(II) species and the comparison between the theoretical (simulated) and the measured isotopic patterns was performed using the DataAnalysis 4.0 software (Bruker).
Eight equivalents of M(NO3)2·xH2O or MSO4·xH2O were reacted with 1 eq. of DPM-1001, DPM-1003 or analog 2 (1 mM in H2O). The reaction solutions were stirred at RT, 40° C. and 80° C. for 2 h. Each sample was diluted 5-fold in 50% methanol, 0.1% formic acid and loaded into a 500 μL syringe. A Thermo Vantage triple quadrupole mass spectrometer (Thermo Scientific), equipped with an HESI spray source was coupled to an Accela HPLC system (Thermo Scientific). Mobile phase A consisted of 0.1% formic acid and mobile phase B consisted of 0.1% formic acid in methanol. Isocratic flow was set to 50% B at 200 μL/min. 200 μl samples were injected into the LC flow line via syringe pump at 10 μL/min and electrosprayed into the Vantage triple quadrupole mass spectrometer. A spray voltage of 4.3 kV was used along with a capillary temperature of 350° C. Each full MS scan was 0.5 s and data were collected with a scan range of 200 m/z to 900 m/z over 1 min.
Binding of compounds of Formula I other than DPM-1001 was also confirmed. In an ESI-MS test, compound DPM-1013 as hydrochloride salt was dissolved in distilled water at a concentration of 2 mM freshly before testing. It was then mixed with an equal volume copper sulfate (16 mM) or copper chloride solution (16 mM) for 2 h, rendering a concentration of DPM-1013 at 1 mM and the copper salt 8 mM. The mixture was then further diluted 100-fold before injection into an ESI-MS, making a final concentration of DPM-1013 of 10 μM and Cu 80 μM in the test.
Binding percentage=peak intensity of all DPM-1013-Cu complex/(peak intensity of all DPM-1013-Cu complex+peak intensity of free DPM-1013).

MDA-MB-231 cells [2] = assay: MDA-MB-231 orthotopic xenograft; type: in vivo, SCID-beige mice; details: mice with TNBC xenograft, 5 mg/kg intraperitoneally every day
Procedure: MDA-MB-231 cells (2×10^6) were injected orthotopically into mammary fat pads of SCID-beige mice (Tectonic lab) in 15 μl of a 1:1 mixture with DMEM and growth factor-reduced Matrigel (BD Biosciences). The animals were randomly assigned to three groups to receive saline (control), DPM-1001 (5 mg/kg) or DPM-1003 (5 mg/kg) intraperitoneally everyday once the tumors reached about 200 mm^3. Tumor growth was monitored every third day and volume in mm^3 was measured three times weekly by palpation using the formula: volume=width^2×length/2. Once the tumor volume reached above 500 mm^3 in saline treated mice, the study was terminated. Tumors from all mice were removed for biochemical analysis.

MDA-MB-231 cells [3] = assay: Cell survival; type: cell-based
Procedure: The MTT assay was used to evaluate cell survival in the absence and presence of different compounds. The thiazolyl blue tetrazolium bromide (MTT) was dissolved in phosphate buffered saline (PBS) at a concentration of 5 mg/ml, filtered, and stored at 4° C. About 10,000 cells were seeded into a 96-well plate and cultured in growth medium containing serum. After 24 hours, cells were treated with the indicated concentrations of DPM-1001 or DPM-1003 (0-100 uM) for 2 hrs. Following which 20 μl MTT was added into each well. An ELISA plate reader (Biotek, Winooski, Vermont, USA) was used to measure the optical density at 490 nm.
MDA-MB-231 cells (1×10^5) were seeded in 6 cm plates in growth medium. The cells were untreated or treated with DPM-1001 (0.5, 1, 2 and 5 μM), DPM-1003 (0.5, 1, 2 and 5 μM) or TTM (25, 50, 100 μM) for 1 h. Following which, media was gently aspirated and cells were washed with PBS. To each plate 0.5 ml of crystal violet (0.5%) was added and incubated in dark for 10 minutes at room temperature. The staining solution was removed and plates were washed with PBS (three times). The cells stained with the dye were imaged.

PTP1B1-321 = target: T1, PTP1B1-321 (Homo sapiens, UniProt P18031); assay: PTP1B phosphatase activity assay, short form; type: biochemical
T1 construct: C-terminally truncated PTP1B (1-321); made in house; host or cells: Escherichia coli BL21 (DE3)-RIL
T1 sequence (P18031 1-321): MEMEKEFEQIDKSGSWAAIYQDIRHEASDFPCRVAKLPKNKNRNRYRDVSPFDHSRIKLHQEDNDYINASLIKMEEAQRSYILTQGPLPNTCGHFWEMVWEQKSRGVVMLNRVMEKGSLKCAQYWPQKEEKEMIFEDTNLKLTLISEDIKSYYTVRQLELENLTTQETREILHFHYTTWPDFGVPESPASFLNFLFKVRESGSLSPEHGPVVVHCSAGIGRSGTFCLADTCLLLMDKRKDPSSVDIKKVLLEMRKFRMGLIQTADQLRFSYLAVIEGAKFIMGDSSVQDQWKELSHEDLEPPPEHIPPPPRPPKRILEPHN
Procedure: All common reagents were obtained from Thermo Fisher Scientific (Waltham, MA) or Sigma-Aldrich (St. Louis, MO). Difluoro-4-methylumbelliferyl phosphate (DiFMUP) was obtained from Invitrogen (cat #D22065). Solid black 384-well plates (cat #3573) for phosphatase assays were from Corning Incorporated (Corning, NY).
Wild-type PTP1B containing a His-tag was expressed in Escherichia coli BL21 (DE3)-RIL using LB. Cells were resuspended in lysis buffer (50 mM Hepes pH 7.2, 150 mM NaCl, 10 mM imidazole, 2 mM TCEP) with cOmplete EDTA-free Protease Inhibitor Cocktail (Roche), and then lysed using a sonicator at 4° C. Lysates were clarified by centrifugation. Initial protein purification was by gravity flow, nickel column chromatography. Protein was used immediately or stored at −80° C. in 50 mM HEPES pH 7.4, 100 mM NaCl, 2 mM dithiothreitol and 25% glycerol.

## COC(=O)CCC(C)C1CCC2C3C(O)CC4CC(NCCCCNCc5ccccn5)CCC4(C)C3CCC12C (centres unmarked) [DPM-1001]
[1]
  complex formation with copper: Formed a Stable Complex with Copper(II)
MDA-MB-231 cells [2]
  tumor volume / tumor size: reduced tumor volume; also recorded: inhibition of tumor size; also recorded: shrank the size of such tumors
MDA-MB-231 cells [3]
  survival of MDA-MB-231 cells: inhibiting survival; also recorded: inhibition of survival
PTP1B1-321; enzyme-inhibitor complex diluted, activity recovery monitored
  reversibility of inhibition of PTP1B1-321: reversibly
PTP1B1-321; varying incubation times
  time dependent change in the IC50 for PTP1B1-321: no obvious time dependent change

Source: patent publication US12178825B2, “Method and compositions for forming a copper-containing complex and uses thereof” (COLD SPRING HARBOR LABORATORY, priority 2017, dated 2024)
